Among the data in patent publication US20130302282A1, “Inhibitors of Hepatitis C Virus” (priority 2010, published 2013) are EC50 values, retold here.

The subject of the assay is 1b_Huh-Luc/Neo-ET cell line (bicistronic genotype 1b replicon in Huh 7 cells). Kind of assay: HCV 1b replicon assay, luciferase readout. The format is cell-based, HCV genotype 1b. The note with it: Hepatitis C virus. The procedure: Biological activity of the compounds of the invention was determined using an HCV replicon assay. The 1b_Huh-Luc/Neo-ET cell line persistently expressing a bicistronic genotype 1b replicon in Huh 7 cells was obtained from ReBLikon GMBH. This cell line was used to test compound inhibition using luciferase enzyme activity readout as a measurement of compound inhibition of replicon levels.
On Day 1 (the day after plating), each compound is added in triplicate to the cells. Plates incubated for 72 […] prior to running the luciferase assay. Enzyme activity was measured using a Bright-Glo Kit (cat. number E2620) manufactured by Promega Corporation. The following equation was used to generate a percent control value for each compound.
%Control=(Average Compound Value/Average Control)*100
The EC50 value was determined using GraphPad Prism and the following equation:
Y=Bottom+(Top−Bottom)/(1+10̂((LogIC50−X)*HillSlope))
EC50 values of compounds are repeated several times in the replicon assay.
(In general: In antiviral work, replicon cells carry a viral genome segment that copies itself.)

The mark [1] stands for this setting: Huh-7, class symbol, HCV genotype 1b replicon, read-out: Inhibition of HCV genotype 1b replicon.
Setting [2] is: Huh-7, 1b_Huh-Luc/Neo-ET cell line, read-out: EC50, half-maximal inhibition of HCV 1b replication.

Structures are written as SMILES. Like-named read-outs stand apart in the source and are kept apart here.

In the case of `CNC(=O)c1c(-c2ccc(F)cc2)nn2cc3c(cc12)[C@@H](C)CCCN3S(C)(=O)=O` (single isomer, unassigned) [Compound B51], under setting [1], the EC50 is more than 1000 nM.
As to `CNC(=O)c1c(-c2ccc(F)cc2)nn2cc3c(cc12)[C@H](C)CCCN3S(C)(=O)=O` (single isomer, unassigned) [Compound B52], the EC50 under setting [1] lay within 100 to 1000 nM.
Still for that read-out and setting: the same measure for `CNC(=O)c1c(-c2ccc(Oc3ccc(F)cc3)cc2)oc2cc3c(cc12)[C@@H](C)CCCN3S(C)(=O)=O` (single isomer, unassigned) [Compound B86]: 100 to 1000 nM.
Turning to `CNC(=O)c1c(-c2ccc(F)cc2)oc2cc3c(cc12)[C@H](C)N1CCC[C@@H]1CN3S(C)(=O)=O` (single isomer, unassigned) [Compound B131], the EC50 was not above 10 nM under setting [2] and less than 10 nM under setting [1].
Turning to `CNC(=O)c1c(-c2ccc(F)cc2)oc2cc3c(cc12)[C@H]1C[C@H]1CCN3S(C)(=O)=O` (single isomer, unassigned) [Compound B133], under setting [1], the EC50 was more than 1000 nM.
`CNC(=O)c1c(-c2ccc(Oc3ccc(F)cc3)cc2)oc2cc3c(cc12)[C@@H](C)n1nncc1CN3S(C)(=O)=O` (single isomer, unassigned) [Compound B164]: the EC50 under setting [2] lay in the range of 10 to 100 nM and the EC50 under setting [1] fell in the range of 10 to 100 nM.
With `CNC(=O)c1c(-c2ccc(F)cc2)oc2cc3c(cc12)[C@@H](C)n1nncc1CN3S(C)(=O)=O` (single isomer, unassigned) [Compound B170], the EC50 by setting is: under setting [2], 10 to 100 nM; under setting [1], 10 to 100 nM.
Turning to `CNC(=O)c1c(-c2ccc(Oc3ccc(F)cc3)cc2)oc2cc3c(cc12)[C@@H](C)OC(C)(C)CN3S(C)(=O)=O` (single isomer, unassigned) [Compound B177], the EC50 under setting [1] lay within 100 to 1000 nM.
With `CNC(=O)c1c(-c2ccc(F)cc2)oc2cc3c(cc12)[C@@H](C)N(C)C(=O)CN3S(C)(=O)=O` (single isomer, unassigned) [Compound B180], the EC50 under setting [2] is 10 to 100 nM and the EC50 under setting [1] was in the range of 10 to 100 nM.
Take `CNC(=O)c1c(-c2ccc(Oc3ccc(F)cc3)cc2)oc2cc3c(cc12)[C@H](C)N(C)C(=O)CN3S(C)(=O)=O` (single isomer, unassigned) [Compound B181]: the EC50 under setting [2] is 10 to 100 nM and the EC50 under setting [1] lay within 10 to 100 nM.
As to `CNC(=O)c1c(-c2ccc(Oc3ccc(F)cc3)cc2)oc2cc3c(cc12)[C@@H](C)N(C)C(=O)CN3S(C)(=O)=O` (single isomer, unassigned) [Compound B182], under setting [1], the EC50 lay within 100 to 1000 nM.
On the same count and under the same terms, the figure for `CNC(=O)c1c(-c2ccc(F)cc2)oc2cc3c(cc12)[C@@H](C)OC(C)(C)CN3S(C)(=O)=O` (single isomer, unassigned) [Compound B185] is more than 1000 nM.
As for `CNC(=O)c1c(-c2ccc(Oc3ccc(F)cc3)cc2)oc2cc3c(cc12)[C@@H](C)OC1(CC1)CN3S(C)(=O)=O` (single isomer, unassigned) [Compound B186], the EC50 by setting is: under setting [2], 10 to 100 nM; under setting [1], 10 to 100 nM.
Turning to `CNC(=O)c1c(-c2ccc(F)cc2)oc2cc3c(cc12)[C@@H](C)OC1(CC1)CN3S(C)(=O)=O` (single isomer, unassigned) [Compound B194], the EC50 under setting [1] fell in the range of 100 to 1000 nM.
Regarding `CNC(=O)c1c(-c2ccc(F)cc2)oc2cc3c(cc12)[C@H](C)c1ccccc1CN3S(C)(=O)=O` (single isomer, unassigned) [Compound B203], the EC50 by setting is: under setting [2], 10 to 100 nM; under setting [1], 10 to 100 nM.
Take `CNC(=O)c1c(-c2ccc(F)cc2)oc2cc3c(cc12)[C@@H](C)c1ccccc1CN3S(C)(=O)=O` (single isomer, unassigned) [Compound B204]: the EC50 is, setting by setting: under setting [2], 10 to 100 nM; under setting [1], 10 to 100 nM.
For the compound `CNC(=O)c1c(-c2ccc(F)cc2)oc2cc3c(cc12)[C@@H](C)NC(=O)CN3S(C)(=O)=O` (single isomer, unassigned) [Compound B209], under setting [1], the EC50 is 100 to 1000 nM.
`CNC(=O)c1c(-c2ccc(Oc3ccc(F)c(F)c3)cc2)nn2cc3c(cc12)C(C)CCCN3S(C)(=O)=O` (centres unmarked) [B97 (3)]: for the setting “Huh-7, read-out: Inhibition of HCV genotype 1b replicon, class symbol, HCV genotype 1b replicon”, the EC50 fell in the range of 10 to 100 nM.
For `CNC(=O)c1c(-c2ccc(F)cc2)oc2cc3c(cc12)C1(CCN3S(C)(=O)=O)CC1` [Compound B2], the EC50 runs as follows: under setting [2], 10 to 100 nM; under setting [1], 10 to 100 nM.
For the compound `CNC(=O)c1c(-c2ccc(F)cc2)oc2cc3c(cc12)CCCCCCN3S(C)(=O)=O` [Compound B19], the EC50 runs as follows: under setting [2], 10 to 100 nM; under setting [1], 10 to 100 nM.
For the compound `CNC(=O)c1c(-c2ccc(F)cc2)oc2cc3c(cc12)CCCCCN3S(C)(=O)=O` [Compound B20], the EC50 reads like this: under setting [2], not above 10 nM; under setting [1], less than 10 nM.
With `CNC(=O)c1c(-c2ccc(F)cc2)oc2cc3[nH]ccc3cc12` [Compound B25], under setting [1], the EC50 is more than 1000 nM.
The same measure, in the same setting: the same measure for `CNC(=O)c1c(-c2ccc(F)cc2)nc2cc3c(cn12)C(C)=CCCO3` [Compound B30]: more than 1000 nM; for `C=C1CCCN(S(C)(=O)=O)c2cc3oc(-c4ccc(Oc5ccc(F)cc5)cc4)c(C(=O)NC)c3cc21` [Compound B46]: 100 to 1000 nM.
On to `CNC(=O)c1c(-c2ccc(Oc3ccc(F)cc3)cc2)oc2cc3c(cc12)C(C)CCCN3S(C)(=O)=O` (centres unmarked) [Compound B47], for which the EC50 under setting [2] lay within 10 to 100 nM and the EC50 under setting [1] fell in the range of 10 to 100 nM.
`CNC(=O)c1c(-c2ccc(Oc3ccc(F)cc3)cc2)oc2cc3c(cc12)C(C)=CCCN3S(C)(=O)=O` [Compound B48]: the EC50 by setting is: under setting [2], 10 to 100 nM; under setting [1], 10 to 100 nM.
On to `CNC(=O)c1c(-c2ccc(F)cc2F)oc2cc3c(cc12)C(=O)CCCN3S(C)(=O)=O` [Compound B49], for which the EC50 under setting [1] was 100 to 1000 nM.
Regarding `CNC(=O)c1c(-c2ccc(F)cc2)nn2cc3c(cc12)C(C)CCCN3S(C)(=O)=O` (centres unmarked) [Compound B50], the EC50 under setting [1] lay in the range of 100 to 1000 nM.
Take `CS(=O)(=O)N1CCCCc2cc3c(C#N)c(-c4ccc(F)cc4)oc3cc21` [Compound B53]: the EC50 under setting [1] is more than 1000 nM.
With `C=CCN1CCN(S(C)(=O)=O)c2cc3oc(-c4ccc(F)cc4)c(C(=O)NC)c3cc2C1C` (centres unmarked) [Compound B54], the EC50 under setting [2] was 10 to 100 nM and the EC50 under setting [1] was 10 to 100 nM.
On to `C=CCN1C(=O)CN(S(C)(=O)=O)c2cc3oc(-c4ccc(F)cc4)c(C(=O)NC)c3cc2C1C` (centres unmarked) [Compound B55], for which the EC50 fell in the range of 10 to 100 nM under setting [2] and 10 to 100 nM under setting [1].
For `CNC(=O)c1c(-c2ccc(F)cc2)nc2cc3c(cn12)C(C)CCCN3S(C)(=O)=O` (centres unmarked) [Compound B56], the EC50 under setting [1] is 100 to 1000 nM.
For the compound `CNC(=O)c1c(-c2ccc(F)cc2)oc2cc3c(cc12)C(C)NCCN3S(C)(=O)=O` (centres unmarked) [Compound B57], the EC50 is, setting by setting: under setting [2], 10 to 100 nM; under setting [1], 10 to 100 nM.
With `CS(=O)(=O)N1CCCCc2cc3c(-c4ncn[nH]4)c(-c4ccc(F)cc4)oc3cc21` [Compound B58], under setting [1], the EC50 was in the range of 100 to 1000 nM.
In the case of `CN(O)C(=O)c1c(-c2ccc(F)cc2)oc2cc3c(cc12)CCCCN3S(C)(=O)=O` [Compound B59], the EC50 under setting [1] fell in the range of 100 to 1000 nM.
On the same count and under the same terms, the same measure for `C=C1CCCN(S(C)(=O)=O)c2cc3oc(-c4ccc(F)cc4OC)c(C(=O)NC)c3cc21` [Compound B83]: more than 1000 nM.
As for `CNC(=O)c1c(-c2ccc(F)cc2OC)oc2cc3c(cc12)C(C)CCCN3S(C)(=O)=O` (centres unmarked) [Compound B84], the EC50 lay in the range of 10 to 100 nM under setting [2] and 10 to 100 nM under setting [1].
Regarding `CNC(=O)c1c(-c2ccc(F)cc2)oc2cc3c(cc12)CCCCN3C(=O)OC` [Compound B87], under setting [1], the EC50 was in the range of 100 to 1000 nM.
Still for that read-out and setting: the figure for `CNC(=O)c1c(-c2ccc(F)cc2)oc2cc3c(cc12)C(O)CCCCN3S(C)(=O)=O` (centres unmarked) [Compound B88] is 100 to 1000 nM.
